Results published in PubChem BioAssay AID2060626 (Molecular Pharmacology Branch, DTP, NCI, 2025).

What follows are compounds tested on 168753-222-R-J1-PDC complex spheroid viability (assay: Anticancer human tumor 168753-222-R-J1-PDC patient-derived bladder carcinoma cell line growth inhibition [CLK]). Settings: second compound 0.1 µM; first compound 0.316 µM; hits give low values.
Outline: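 Patient-derived tumor cells grown as complex spheroids with HUVEC endothelial cells and mesenchymal stem cells, treated with drug combinations. Concentrations descend in half-log steps from near clinical Cmax, or from 10 microM if Cmax unknown.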
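Also: luminescence signal used as surrogate for viable cell amount; viability measured after seven days of drug exposure; 100% = DMSO vehicle control wells.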

Compound	viability, T/C
O=C(c1cc(Cc2n[nH]c(=O)c3ccccc23)ccc1F)N1CCN(C(=O)C2CC2)CC1 + CNC(=O)c1ccc(Nc2nc(OC3CCCC3)c3c(-c4ccc5nc(C)oc5c4)c[nH]c3n2)c(OC)c1	92.8%
O=c1[nH]cc(F)c(=O)[nH]1 + CNC(=O)c1ccc(Nc2nc(OC3CCCC3)c3c(-c4ccc5nc(C)oc5c4)c[nH]c3n2)c(OC)c1	86.8%

Same assay, conditions: second compound 0.1 µM; first compound 1 µM; hits give low values

Compound	viability, T/C
CCc1c2c(nc3ccc(O)cc13)-c1cc3c(c(=O)n1C2)COC(=O)[C@]3(O)CC + CNC(=O)c1ccc(Nc2nc(OC3CCCC3)c3c(-c4ccc5nc(C)oc5c4)c[nH]c3n2)c(OC)c1	12.8%
Nc1ccn(C2OC(CO)C(O)C2(F)F)c(=O)n1 (configuration not stated) + CNC(=O)c1ccc(Nc2nc(OC3CCCC3)c3c(-c4ccc5nc(C)oc5c4)c[nH]c3n2)c(OC)c1	49.9%
O=C(c1cc(Cc2n[nH]c(=O)c3ccccc23)ccc1F)N1CCN(C(=O)C2CC2)CC1 + CNC(=O)c1ccc(Nc2nc(OC3CCCC3)c3c(-c4ccc5nc(C)oc5c4)c[nH]c3n2)c(OC)c1	95%
O=c1[nH]cc(F)c(=O)[nH]1 + CNC(=O)c1ccc(Nc2nc(OC3CCCC3)c3c(-c4ccc5nc(C)oc5c4)c[nH]c3n2)c(OC)c1	115%

Same assay, conditions: second compound 0.1 µM; first compound 3.16 µM; hits give low values

Compound	viability, T/C
Nc1ccn(C2OC(CO)C(O)C2(F)F)c(=O)n1 (configuration not stated) + CNC(=O)c1ccc(Nc2nc(OC3CCCC3)c3c(-c4ccc5nc(C)oc5c4)c[nH]c3n2)c(OC)c1	34.2%
O=C(c1cc(Cc2n[nH]c(=O)c3ccccc23)ccc1F)N1CCN(C(=O)C2CC2)CC1 + CNC(=O)c1ccc(Nc2nc(OC3CCCC3)c3c(-c4ccc5nc(C)oc5c4)c[nH]c3n2)c(OC)c1	99.2%
O=c1[nH]cc(F)c(=O)[nH]1 + CNC(=O)c1ccc(Nc2nc(OC3CCCC3)c3c(-c4ccc5nc(C)oc5c4)c[nH]c3n2)c(OC)c1	90.4%

Same assay, conditions: second compound 0.1 µM; first compound 10 µM; hits give low values

Compound	viability, T/C
Nc1ccn(C2OC(CO)C(O)C2(F)F)c(=O)n1 (configuration not stated) + CNC(=O)c1ccc(Nc2nc(OC3CCCC3)c3c(-c4ccc5nc(C)oc5c4)c[nH]c3n2)c(OC)c1	25.4%
O=C(c1cc(Cc2n[nH]c(=O)c3ccccc23)ccc1F)N1CCN(C(=O)C2CC2)CC1 + CNC(=O)c1ccc(Nc2nc(OC3CCCC3)c3c(-c4ccc5nc(C)oc5c4)c[nH]c3n2)c(OC)c1	93.7%
O=c1[nH]cc(F)c(=O)[nH]1 + CNC(=O)c1ccc(Nc2nc(OC3CCCC3)c3c(-c4ccc5nc(C)oc5c4)c[nH]c3n2)c(OC)c1	85.1%

Same assay, conditions: second compound 0.316 µM; first compound 0.000316 µM; hits give low values

Compound	viability, T/C
Cn1ncnc1[C@H]1c2n[nH]c(=O)c3cc(F)cc(c23)N[C@@H]1c1ccc(F)cc1 + CNC(=O)c1ccc(Nc2nc(OC3CCCC3)c3c(-c4ccc5nc(C)oc5c4)c[nH]c3n2)c(OC)c1	66.3%

Same assay, conditions: second compound 0.316 µM; first compound 0.001 µM; hits give low values

Compound	viability, T/C
Cn1ncnc1[C@H]1c2n[nH]c(=O)c3cc(F)cc(c23)N[C@@H]1c1ccc(F)cc1 + CNC(=O)c1ccc(Nc2nc(OC3CCCC3)c3c(-c4ccc5nc(C)oc5c4)c[nH]c3n2)c(OC)c1	72%

Same assay, conditions: second compound 0.316 µM; first compound 0.00316 µM; hits give low values

Compound	viability, T/C
CCc1c2c(nc3ccc(O)cc13)-c1cc3c(c(=O)n1C2)COC(=O)[C@]3(O)CC + CNC(=O)c1ccc(Nc2nc(OC3CCCC3)c3c(-c4ccc5nc(C)oc5c4)c[nH]c3n2)c(OC)c1	82.1%
Cn1ncnc1[C@H]1c2n[nH]c(=O)c3cc(F)cc(c23)N[C@@H]1c1ccc(F)cc1 + CNC(=O)c1ccc(Nc2nc(OC3CCCC3)c3c(-c4ccc5nc(C)oc5c4)c[nH]c3n2)c(OC)c1	77.2%

Same assay, conditions: second compound 0.316 µM; first compound 0.01 µM; hits give low values

Compound	viability, T/C
CCc1c2c(nc3ccc(O)cc13)-c1cc3c(c(=O)n1C2)COC(=O)[C@]3(O)CC + CNC(=O)c1ccc(Nc2nc(OC3CCCC3)c3c(-c4ccc5nc(C)oc5c4)c[nH]c3n2)c(OC)c1	88.2%
Cn1ncnc1[C@H]1c2n[nH]c(=O)c3cc(F)cc(c23)N[C@@H]1c1ccc(F)cc1 + CNC(=O)c1ccc(Nc2nc(OC3CCCC3)c3c(-c4ccc5nc(C)oc5c4)c[nH]c3n2)c(OC)c1	85.2%

Same assay, conditions: second compound 0.316 µM; first compound 0.0316 µM; hits give low values

Compound	viability, T/C
CCc1c2c(nc3ccc(O)cc13)-c1cc3c(c(=O)n1C2)COC(=O)[C@]3(O)CC + CNC(=O)c1ccc(Nc2nc(OC3CCCC3)c3c(-c4ccc5nc(C)oc5c4)c[nH]c3n2)c(OC)c1	62.5%
Cn1ncnc1[C@H]1c2n[nH]c(=O)c3cc(F)cc(c23)N[C@@H]1c1ccc(F)cc1 + CNC(=O)c1ccc(Nc2nc(OC3CCCC3)c3c(-c4ccc5nc(C)oc5c4)c[nH]c3n2)c(OC)c1	82.1%
Nc1ccn(C2OC(CO)C(O)C2(F)F)c(=O)n1 (configuration not stated) + CNC(=O)c1ccc(Nc2nc(OC3CCCC3)c3c(-c4ccc5nc(C)oc5c4)c[nH]c3n2)c(OC)c1	84.2%
O=C(c1cc(Cc2n[nH]c(=O)c3ccccc23)ccc1F)N1CCN(C(=O)C2CC2)CC1 + CNC(=O)c1ccc(Nc2nc(OC3CCCC3)c3c(-c4ccc5nc(C)oc5c4)c[nH]c3n2)c(OC)c1	76.8%
O=c1[nH]cc(F)c(=O)[nH]1 + CNC(=O)c1ccc(Nc2nc(OC3CCCC3)c3c(-c4ccc5nc(C)oc5c4)c[nH]c3n2)c(OC)c1	83.6%

Same assay, conditions: second compound 0.316 µM; first compound 0.1 µM; hits give low values

Compound	viability, T/C
CCc1c2c(nc3ccc(O)cc13)-c1cc3c(c(=O)n1C2)COC(=O)[C@]3(O)CC + CNC(=O)c1ccc(Nc2nc(OC3CCCC3)c3c(-c4ccc5nc(C)oc5c4)c[nH]c3n2)c(OC)c1	30.1%
Cn1ncnc1[C@H]1c2n[nH]c(=O)c3cc(F)cc(c23)N[C@@H]1c1ccc(F)cc1 + CNC(=O)c1ccc(Nc2nc(OC3CCCC3)c3c(-c4ccc5nc(C)oc5c4)c[nH]c3n2)c(OC)c1	77.2%
Nc1ccn(C2OC(CO)C(O)C2(F)F)c(=O)n1 (configuration not stated) + CNC(=O)c1ccc(Nc2nc(OC3CCCC3)c3c(-c4ccc5nc(C)oc5c4)c[nH]c3n2)c(OC)c1	64.5%
O=C(c1cc(Cc2n[nH]c(=O)c3ccccc23)ccc1F)N1CCN(C(=O)C2CC2)CC1 + CNC(=O)c1ccc(Nc2nc(OC3CCCC3)c3c(-c4ccc5nc(C)oc5c4)c[nH]c3n2)c(OC)c1	74.2%
